Measured values: publication PMC7835349 (Communications Biology, 2021)
“And” between values parts separate entries of the source, which are not always exact repeats. Equal values may be shown once.

Columns and labels:
[1] = test system: telemetered rats; assay: Conscious rat telemetry (QRS amplitude, blood pressure, tolerability); details: for QRS amplitude (mV change), Mean: mean of rats;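 on all read-outs here: male Han Wistar rats carrying implanted telemetry transmitters, with ECG and arterial pressure recorded continuously while unrestrained in their home cage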
Description: Male Han Wistar rats were implanted with HD‐S11 transmitters (Data Sciences International, St. Paul, MN USA) under isoflurane anaesthesia, the telemetry transmitter was placed in the peritoneal cavity, the arterial blood pressure catheter was placed in the terminal abdominal aorta and the ECG electrodes were sutured, one at the dorsal surface of the xiphoid process and one at the anterior mediastinum, close to the right atrium[42]. Animals were allowed to recover for at least 2 weeks and were around 2–3 months at the time of experimentation. The animals were pair‐housed in standard rat cages with a non‐instrumented companion throughout the study. Cages were prepared with bedding material and enrichment.
Telemetry recordings took place in the home cage. […] The animals were removed from the cage temporarily for dosing and blood sampling. Animals were not subject to restraint except where dosing and blood sampling was performed. Data acquisition used Dataquest Open A.R.T.™ with HEM software version 4.2 (Notocord Inc).
For evaluation of AZD4320, n = 8 rats received single doses of 0 (vehicle: 30% Kleptose, pH9) or 10 mg/kg AZD4320, administered as a 30-min intravenous infusion. A cross-over study design was used, with an interval of 7 days between treatments.
Data for all parameters were collected continuously during the recording period. The continuous data from each animal was binned into chosen time intervals of varying length and averaged to generate a single data point for each reported nominal time. Each reported nominal timepoint was then averaged across each of the animals tested for each dose level.

[2] = test system: telemetered dogs; assay: Conscious dog telemetry (QRS amplitude and other cardiovascular parameters, tolerability); details: for ECG PR interval / ECG QRS duration / Left ventricular -dP/dt (mmHg/s) / QRS amplitude (% baseline) / Systolic blood pressure (mmHg): 0.2 mg/kg
[3] = rat, Dose 10 mg/kg (AZD4320 equivalent 10 for AZD4320, 3 for conjugates)
[4] = dog 264, 0.5h infusion, -0.75 hours (pre-dose)
[5] = dog 264, 0.5h infusion, -1 hours (pre-dose)
[6] = dog 264, 0.5h infusion, -1.25 hours (pre-dose)
[7] = dog, 0.2 mg/kg 0.5h infusion, 0.5 h
[8] = dog, 0.2 mg/kg 0.5h infusion, 0.75 h
[9] = dog, 0.2 mg/kg 0.5h infusion, 1 h
[10] = dog, 0.2 mg/kg 0.5h infusion, 1.5 h
[11] = dog, 0.2 mg/kg 0.5h infusion, 2 h
[12] = dog, 0.2 mg/kg 0.5h infusion, 3 h
[13] = dog, 0.2 mg/kg 0.5h infusion, 4 h
[14] = dog, 0.2 mg/kg 0.5h infusion, 6 h
[15] = dog, 0.2 mg/kg 0.5h infusion, 8 h

## CN(CCO)CCC(CSc1ccccc1)Nc1ccc(S(=O)(=O)NC(=O)c2ccc(N3CCC(C(O)c4ccccc4-c4ccc(Cl)cc4)CC3)cc2)cc1S(=O)(=O)C(F)(F)F (centres unmarked) [AZD4320]
[1]; rat, AZD4320 10 mg/kg, 24 h post dose
  QRS amplitude (mV change), Mean: -0.62 mV
[1]; rat, AZD4320 10 mg/kg, […] post dose
  QRS amplitude (mV change), Mean: -0.58 mV
[1]; [3]
  Blood pressure decrease: Yes
  QRS amplitude decrease: Yes
  Tolerated?: 6/8
[1]; telemetered rat, AZD4320 10 mg/kg, conjugates 30 mg/kg IV
  effect on QRS amplitude: marked and prolonged reduction in QRS amplitude
[2]; dog
  NOEL (no observed effect level), cardiovascular system: 0.2 mg/kg
[2]; [4]
  ECG PR interval: 111 ms
  ECG QRS duration: 46 ms
  Left ventricular -dP/dt (mmHg/s): 3600 mmHg/s
  QRS amplitude (% baseline): 92 % baseline
  Systolic blood pressure (mmHg): 151 mmHg
[2]; [5]
  ECG PR interval: 116 ms
  ECG QRS duration: 48 ms
  Left ventricular -dP/dt (mmHg/s): 3490 mmHg/s
  QRS amplitude (% baseline): 71 % baseline
  Systolic blood pressure (mmHg): 155 mmHg
[2]; [6]
  ECG PR interval: 111 ms
  ECG QRS duration: 47 ms
  QRS amplitude (% baseline): 83 % baseline
  Systolic blood pressure (mmHg): 145 mmHg
[2]; [7]
  ECG PR interval: 109 ms and 90 ms and 88 ms
  ECG QRS duration: 48 ms and 38 ms and 40 ms and 37 ms
  Left ventricular -dP/dt (mmHg/s): 3401 mmHg/s and 3547 mmHg/s and 3477 mmHg/s and 4862 mmHg/s
  QRS amplitude (% baseline): 105 % baseline and 100 % baseline and 97 % baseline and 101 % baseline
  Systolic blood pressure (mmHg): 175 mmHg and 149 mmHg and 155 mmHg and 165 mmHg
[2]; [8]
  ECG PR interval: 113 ms and 82 ms and 85 ms and 87 ms
  ECG QRS duration: 49 ms and 37 ms and 40 ms
  Left ventricular -dP/dt (mmHg/s): 3504 mmHg/s and 3607 mmHg/s and 3634 mmHg/s and 4976 mmHg/s
  QRS amplitude (% baseline): 94 % baseline and 91 % baseline and 92 % baseline
  Systolic blood pressure (mmHg): 163 mmHg and 153 mmHg and 156 mmHg and 164 mmHg
[2]; [9]
  ECG PR interval: 116 ms and 88 ms and 93 ms
  ECG QRS duration: 47 ms and 38 ms and 40 ms and 37 ms
  Left ventricular -dP/dt (mmHg/s): 3285 mmHg/s and 3388 mmHg/s and 2965 mmHg/s and 4801 mmHg/s
  QRS amplitude (% baseline): 88 % baseline and 90 % baseline and 92 % baseline and 95 % baseline
  Systolic blood pressure (mmHg): 150 mmHg and 144 mmHg and 138 mmHg and 159 mmHg
[2]; [10]
  ECG PR interval: 119 ms and 95 ms and 104 ms and 88 ms
  ECG QRS duration: 49 ms and 38 ms and 40 ms and 37 ms
  Left ventricular -dP/dt (mmHg/s): 3080 mmHg/s and 3480 mmHg/s and 2336 mmHg/s and 4643 mmHg/s
  QRS amplitude (% baseline): 83 % baseline and 97 % baseline and 84 % baseline and 99 % baseline
  Systolic blood pressure (mmHg): 135 mmHg and 152 mmHg and 130 mmHg and 156 mmHg
[2]; [11]
  ECG PR interval: 110 ms and 85 ms and 101 ms and 91 ms
  ECG QRS duration: 47 ms and 37 ms and 40 ms
  QRS amplitude (% baseline): 86 % baseline and 90 % baseline and 91 % baseline and 95 % baseline
  Systolic blood pressure (mmHg): 167 mmHg and 155 mmHg and 129 mmHg and 164 mmHg
[2]; [12]
  ECG PR interval: 115 ms and 98 ms and 96 ms and 89 ms
  ECG QRS duration: 48 ms and 37 ms and 39 ms and 36 ms
  Left ventricular -dP/dt (mmHg/s): 3439 mmHg/s and 3333 mmHg/s and 2944 mmHg/s and 5068 mmHg/s
  QRS amplitude (% baseline): 121 % baseline and 94 % baseline and 76 % baseline and 88 % baseline
  Systolic blood pressure (mmHg): 164 mmHg and 159 mmHg and 145 mmHg and 170 mmHg
[2]; [13]
  ECG PR interval: 106 ms and 97 ms and 92 ms and 91 ms
  ECG QRS duration: 46 ms and 36 ms and 39 ms
  Left ventricular -dP/dt (mmHg/s): 3609 mmHg/s and 3205 mmHg/s and 2963 mmHg/s and 4495 mmHg/s
  QRS amplitude (% baseline): 97 % baseline and 82 % baseline and 80 % baseline and 89 % baseline
  Systolic blood pressure (mmHg): 153 mmHg and 136 mmHg and 139 mmHg and 152 mmHg
[2]; [14]
  ECG PR interval: 96 ms and 86 ms and 89 ms and 67 ms
  ECG QRS duration: 48 ms and 37 ms and 39 ms
  Left ventricular -dP/dt (mmHg/s): 2830 mmHg/s and 3356 mmHg/s and 3220 mmHg/s and 3767 mmHg/s
  QRS amplitude (% baseline): 108 % baseline and 84 % baseline and 81 % baseline and 102 % baseline
  Systolic blood pressure (mmHg): 147 mmHg and 145 mmHg and 158 mmHg
[2]; [15]
  ECG PR interval: 98 ms and 88 ms and 86 ms and 73 ms
  ECG QRS duration: 48 ms and 37 ms and 39 ms
